Reference: patent US20130338092A1, “COMPOUNDS AND METHODS FOR TARGETING LEUKEMIC STEM CELLS” (The Broad Institute, Inc., priority 2011, published 2013)
“Also recorded” adds a separate entry of the source.

Tested on: primary leukemia cells
Experiment: Gene expression profiling with GSEA
Assay type: cell-based, murine
Details: 5 μM, 6 hours in suspension
Description: To elucidate potential cell-autonomous effects of BRD7116, primary leukemia cells were exposed to either 5 μM BRD7116 or DMSO vehicle for 6 hours in suspension in IMDM (12440053, Invitrogen) with 10% FBS, 10 ng/ml mIL3, and 1× Pen-Strep.
RNA was isolated using a trizol-chloroform protocol or with a Qiagen RNeasy kit (74104, Qiagen). Total RNA from the samples was normalized to 20 ng/μl and the Illumina® TotalPrep™-96 RNA Amplification Kit (Applied Biosystems, PN #4393543) protocol was used for amplification in a semi automated process. The total RNA underwent reverse transcription to synthesize first-strand cDNA. This cDNA was then converted into a double-stranded DNA template for transcription. In vitro transcription synthesized aRNA and incorporated a biotin-conjugated nucleotide. […] Illumina's BeadArray Reader was used to measure the fluorescence intensity at each addressed bead location.
Gene-expression profiles were generated by using mouse ref-8 DNA microarray (Illumina) according to manufacturer's instruction. […] The resulting data was analyzed using Gene Set Enrichment Analysis method (Subramanian, A., Tamayo, P., Mootha, V. K., Mukherjee, S., Ebert, B. L., Gillette, M. A., Paulovich, A., Pomeroy, S. L., Golub, T. R., Lander, E. S., et al. (2005). Proc Natl Acad Sci USA 102, 15545-15550.). […]

CC1(C)C(C(=O)Nc2ccc(S(=O)(=O)c3ccc(NC(=O)C4C(C)(C)C4(C)C)cc3)cc2)C1(C)C [BRD7116]
gene expression changes (GSEA): induces an AML differentiation program; also recorded: induction of an AML differentiation program
